Measured values: publication PMC8845285, “Serotoninergic receptor ligands improve Tamoxifen effectiveness on breast cancer cells” (BMC Cancer, 2022)
Where two headings read alike, the source gives them in different places.

Legend:
Assay type in all cases: cell-based, human
MCF7 cells [1] = assay: MCF7 cell viability, sulforhodamine B assay; conditions: for IC50: Homo sapiens, MCF7
Description: (§1) MCF7 (ER^+, PR^+, HER2^−), SKBR3 (ER^−, PR^+, HER2^+) and MDA-MB231 (ER^−, PR^−, HER2^−) human BC cells and MCF10A non-cancer breast epithelial cells were available in our laboratory. MCF7, SKBR3 and MDA-MB231 cells were cultured in DMEM, supplemented with 10% FBS, 2 mM glutamine, 100 units/ml penicillin and 100 units/ml streptomycin. MCF10A cells were cultured in MEBM, supplemented with 0.4% BPE, 0.1% hEGF, 0.1%, Insulin, 0.1% Hydrocortisone and 0.1% GA-1000. […] Treatment with SER were carried out in culture conditions. Treatment with Tamoxifen and/or SER were carried out upon 48 h estrogen starvation in phenol-red free medium supplemented with 10% Charcoal Stripped (C/S) FBS, 2 mM glutamine, 100 units/ml penicillin and 100 units/ml streptomycin.
(§2) Cells were fixed with 50% trichloroacetic acid for at least 2 h at 4 °C, washed with distilled and de-ionized water, air-dryed and stained 30 min with 0.4% sulforhodamine B in 1% acetic acid. Unbound dye was removed and 10 mM tris-HCl solution (pH 7.5) was added to dissolve the protein-bound dye. Cell survival was assessed by optical density determination at 510 nm using a microplate reader.
After 48 and 72 h, cell viability was assessed by sulforhodamine B assay (see Methods).

MDA-MB231 cells = assay: MDA-MB231 cell viability, sulforhodamine B assay; conditions: for inhibition of MDA-MB231 cell growth: 100 μM, 72 h; for IC50: Homo sapiens, MDA-MB-231, 72 h treatment
Description: as §1, §2
Cell viability was assessed, after 72 h, by sulforhodamine B assay (see Methods).

MCF7 cells [2] = assay: MCF7 responsiveness to Tamoxifen in presence of SER, sulforhodamine B assay; conditions: Tamoxifen 5 μM, E2 100 nM, 72 h, estrogen-starved MCF7
Description: as §1, §2
(§3) After 72 h, cell cycle was assessed by Propidium Iodide staining (see Methods). […] As positive control, the cells were treated with E2 and SER alone (without Tamoxifen, dotted line). After 72 h, cell viability was assessed by sulforhodamine B assay (see Methods). […] After 72 h, mRNA levels of CTGF were determined by qPCR (see Methods and Table 1). Data were normalized on Ribosomal Protein S23 (Rps23) gene as internal standard and were reported as CTGF mRNA levels in MCF7 treated with SER relative to those in untreated cells (dotted line). a-c Data represent the mean ± SD of at least three independent triplicate experiments. * denotes statistically significant values compared with (a) percentage of untreated cells in G0/G1, S and G2/M cell cycle phase (*pval<0.05,**pval<0.01), (b) positive control (*adjp<0.05,**adjp <0.01,***adjp<0.001), (c) untreated cells (pval<0.05); # denotes statistically significant values compared with cells treated with Tamoxifen in absence of SER (#pval<0.05)
(§4) Fig. 7 Effect of low doses of SER79 and SER68 on MCF7 and MCF10A cells. a Estrogen-starved MCF7 cells (48 h) were treated with Tamoxifen (5 μM) in presence of E2 (100nM) and SER79 (5 μM) or SER68 (20 μM, 5 μM). As positive control, the cells were treated with E2 and SER alone (without Tamoxifen, dotted line). After 72 h, cell viability was assessed by sulforhodamine B assay (see Methods). […] After 72 h, mRNA levels of CTGF were determined by qPCR (see Methods and Table 1). Data were normalized on Ribosomal Protein S23 (Rps23) gene as internal standard. Bars represent CTGF mRNA levels in MCF7 treated with SER relative to those in untreated cells (dotted line). c MCF10A non-cancer breast epithelial cells were treated with SER79 (5 μM) or SER68 (20 μM). After 72 h, cell viability was assessed by sulforhodamine B assay (see Methods).

CTGF [3] = assay: CTGF mRNA levels in MCF7 cells, qPCR; conditions: E2 100 nM, 72 h, estrogen-starved MCF7; for CTGF mRNA levels lower compared with untreated cells: SER at IC50 dose
Description: (§5) Total RNA was isolated from cells, quantified (NanoDrop spectrophotometer, Life Technologies, Carlsbad, CA, USA) and reverse transcribed according to the manufacturer’s instructions. Semiquantitative PCR and qPCR assays were performed according to manufacturer’s instructions for Bio-Rad T100 thermal cycler and CFX Connect Real Time system (Biorad, Hercules, CA, USA), respectively. Relative gene expression quantification was measured by 2^−ΔΔCt method normalizing for the reference sample using Rps23 (Ribosomal Protein S23) as housekeeping gene.
as §3, §4

CTGF [4] = assay: CTGF mRNA levels in Tamoxifen-cultured MCF7 cells, qPCR; conditions: Tamoxifen-cultured MCF7, doses able to restore Tamoxifen responsiveness, 72 h
Description: as §5
Fig. 8 Effect of SER79 and SER68 on Tamoxifen-cultured MCF7 cells. MCF7 cells were cultured in presence of Tamoxifen (1 μM) for 10 days. Estrogen-starved MCF7 and Tamoxifen-cultured MCF7 cells (48 h) were (a-c) treated with SER79 (20 μM, 5 μM) or SER68 (40 μ, 20 μM), (b) treated with Tamoxifen (5 μM) in presence of SER79 (20 μM, 5 μM) or SER68 (40 μM, 20 μM). All treatments were carried out in presence of E2 (100 nM) for 72 h. As positive control, the cells were treated with (a-c) E2 alone or (b) E2 in absence or in presence of SER (as indicated, dotted line). a,b Cell viability was assessed by sulforhodamine B assay (see Methods). The results were reported as percentage of viable cells compared to positive control, considered as maximum viability (100%). c mRNA levels of CTGF were determined by qPCR (see Methods and Table 1). […]

[5] = 48 h treatment, read-out: IC50 MCF7 48h
[6] = 72 h treatment, read-out: IC50 MCF7

| Structure (SMILES) | reduction of MCF7 cell viability (MCF7 cells [1]; 50 μM, 72 h) | IC50 (MCF7 cells [1]; [5]) | IC50 (MCF7 cells [1]; [6]) | inhibition of MDA-MB231 cell growth (MDA-MB231 cells) | IC50 (MDA-MB231 cells) | further decrease of cell viability compared with Tamoxifen alone (MCF7 cells [2]; SER 5 μM) | further decrease of cell viability compared with Tamoxifen alone (MCF7 cells [2]; SER at IC50 dose) | reduction of CTGF expression (CTGF [3]; SER 5 μM) | CTGF mRNA levels lower compared with untreated cells (CTGF [3]) | CTGF levels after SER compared with those in Tamoxifen-responsive MCF7 cells (CTGF [4]) | further decrease of cell viability compared with Tamoxifen alone (MCF7 cells [2]; SER 20 μM) | reduction of CTGF expression (CTGF [3]; SER 20 μM) |
| --- | --- | --- | --- | --- | --- | --- | --- | --- | --- | --- | --- | --- |
| N#CN=C(NCCCN1CCN(C(c2ccc(F)cc2)c2ccc(F)cc2)CC1)c1ccccn1 [SER79] | ≈ 70% | 85.1 ± 13.4 µM | 24.1 µM | able to inhibit | 117 µM | ≈ 15% | ≈ 15% | ≈ 30% | ≈ 60% | similar | – | – |
| O=C1C2C3C=CC(C3)C2C(=O)N1OCCN1CCN(c2ccc(Cl)c(Cl)c2)CC1 (centres unmarked) [SER68] | – | 131 ± 13.8 µM | 54.2 ± 10.2 µM | able to inhibit | 171 ± 37.3 µM | No further effect | ≈ 30% | – | ≈ 80% | significantly lower | ≈ 20% | ≈ 50% |
